The values below come from PubChem BioAssay (NCI).

Test systems include MDA-MB-435; 786-0 renal; CCRF-CEM leukemia; A498 renal; COLO 205 colon; SF-539 CNS; RXF 393 renal; T-47D breast; OVCAR-5 ovarian; HOP-92 NSCLC.
Holding throughout (experiment): NCI anticancer screen, dose series, 48 h

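These data come from cells grown in 96-well plates and exposed to compound for 48 hours at five concentrations. GI50 is the concentration that inhibits growth by half. The concentration for full growth arrest is given as TGI.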

As to `c1ccc2c(c1)c1ccccc1c1ccccc21`, the GI50 in the assay with MDA-MB-435, in the assay on 786-0 renal, in the assay with CCRF-CEM leukemia, in the assay with A498 renal, with COLO 205 colon and with SF-539 CNS was > 100 µM throughout. Also, the GI50 in the assay on RXF 393 renal, with T-47D breast, with OVCAR-5 ovarian and with HOP-92 NSCLC was > 100 µM in each case. Besides, the TGI in the assay with MDA-MB-435, in the assay with 786-0 renal, in the assay on CCRF-CEM leukemia, in the assay on A498 renal, in the assay with COLO 205 colon and in the assay with SF-539 CNS was > 100 µM each time. The TGI with RXF 393 renal, in the assay on T-47D breast, in the assay on OVCAR-5 ovarian and in the assay with HOP-92 NSCLC was > 100 µM throughout.

As for `COc1ccc(-c2ccc(NNC(=O)c3ccc(F)cc3)nn2)cc1OC`, the GI50 with MDA-MB-435 is > 100 µM; in the assay with 786-0 renal, > 100 µM; with CCRF-CEM leukemia, 38 µM; in the assay with A498 renal, > 100 µM; in the assay with COLO 205 colon, > 100 µM; in the assay on SF-539 CNS, > 100 µM. The GI50 in the assay with RXF 393 renal is 63 µM; in the assay with T-47D breast, 28.1 µM; in the assay on OVCAR-5 ovarian it was > 100 µM; in the assay on HOP-92 NSCLC, 17.8 µM. The TGI with MDA-MB-435, with 786-0 renal, with CCRF-CEM leukemia, in the assay on A498 renal, with COLO 205 colon and in the assay with SF-539 CNS was > 100 µM throughout. Further, the TGI with RXF 393 renal is > 100 µM; with T-47D breast it was > 100 µM; with OVCAR-5 ovarian, > 100 µM; in the assay with HOP-92 NSCLC, 99.3 µM.

Turning to `Oc1ccc(/C=C/c2cc(O)cc3c2C(c2cc(O)cc(O)c2)C(c2ccc(O)c(O)c2)O3)cc1` (stereo not given), the TGI is > 100 µM in the assay with MDA-MB-435; > 100 µM in the assay on 786-0 renal; > 100 µM in the assay on CCRF-CEM leukemia; > 100 µM with A498 renal; 45.1 µM in the assay on COLO 205 colon; > 100 µM in the assay on SF-539 CNS. Also, the TGI in the assay with RXF 393 renal, in the assay on T-47D breast, with OVCAR-5 ovarian and in the assay with HOP-92 NSCLC was > 100 µM each time.

In the case of `COc1ccc(-c2cc(Nc3ccnc(N4CCOCC4)n3)on2)cc1`, the GI50 in the assay with MDA-MB-435 was 0.0307 µM; in the assay on 786-0 renal, 0.376 µM; with CCRF-CEM leukemia it was 0.267 µM; in the assay with A498 renal it was 0.343 µM; in the assay on COLO 205 colon it was 0.239 µM; in the assay on SF-539 CNS, 0.264 µM. In addition, the GI50 in the assay with RXF 393 renal was 0.16 µM; in the assay on T-47D breast, 0.566 µM; in the assay on OVCAR-5 ovarian, 0.684 µM; with HOP-92 NSCLC it was 3.46 µM. Besides, the TGI was 0.121 µM in the assay with MDA-MB-435; 8.4 µM in the assay with 786-0 renal; > 34.5 µM with CCRF-CEM leukemia; 2.41 µM in the assay on A498 renal; 1.53 µM with COLO 205 colon; 1.16 µM with SF-539 CNS. For the same molecule, the TGI with RXF 393 renal came out at 0.564 µM; in the assay on T-47D breast, 21.6 µM; in the assay on OVCAR-5 ovarian it was 20.8 µM; in the assay on HOP-92 NSCLC it was 22.5 µM.
